Source: US20190169218A1, “AMPHIPATHIC COMPOUND HAVING NOVEL PENTA-SACCHARIDE HYDROPHILIC GROUP AND USE THEREOF” (Industry-University Cooperation Foundation Hanyang …, priority 2016, published 2019)

Columns and labels:
[1] = target: T1, human β2 adrenergic receptor (β2AR) (Homo sapiens, UniProt P07550); test: β2AR activity by [3H]-dihydroalprenolol radioactive ligand binding assay; assay type: biochemical; settings: for long-term β2AR activity ([3H]-DHA binding): 3 or 5 days at room temperature
T1 construct: Flag; made in house
Protocol: The membrane protein stabilizing ability of receptors (mBBr-β2ARs) solubilized in PSAs or PSEs was evaluated by measuring the binding activity of the receptors to [^3H]-dihydroalprenolol ([^3H]-DHA).
Specifically, radioactive ligand binding assay was performed as follows. β2ARs purified with 0.1 wt % DDM was concentrated to about 10 mg/mL (approximately 200 μM). β2ARs purified with DDM were used to prepare a master binding mixture containing 10 nM [^3H]-dihydroalprenolol (DHA), which was dissolved in 0.2 wt % of DDM, PSA or PSE and supplemented with 0.5 mg/mL BSA. At a concentration of 0.2 pmol, the activity of the receptors purified with the amphipathic compounds was monitored at regular intervals over a 4-day incubation period. Protein samples were incubated on ice for 2 days and then at room temperature for 2 days. Receptor activity was measured by binding assay for dissolved radioactive ligands. The receptors purified with DDM or a novel formulation (PSA-C11, PSE-C11 or PSE-C13) were incubated with 10 nM [^3H]-DHA at room temperature for 30 minutes. The mixture was loaded onto a G-50 column, a solution passed through the column was collected in 1 mL of a binding buffer (100 mM NaCl and 20 mM HEPES (pH 7.5) supplemented with 0.5 mg/mL BSA and 20×CMC amphipathic compounds), and 15 mL of a scintillation fluid was added to the solution. Receptor-bound [^3H]-DHA was measured using a scintillation counter (Beckman). Non-specific binding of [^3H]-DHA was measured by adding 1 μM alprenolol (Sigma) to the same reaction mixture. The binding degree of the receptors to [^3H]-DHA was represented by a column graph.
The ability of TPSs (TPS-As, TPS-Es and TPS-ELs) to stabilize the structures of human β2 adrenergic receptors (β2ARs) and G protein-coupled receptors (GPCRs) was measured. That is, DDM-purified receptors were diluted with a buffer solution containing only each of the TPSs without cholesteryl hemisuccinate (CHS) or a buffer solution containing CHS and DDM. The final concentration of the compounds was CMC+0.2wt %, and the binding activity of the receptors to ligands was evaluated by measuring the degree of binding of the receptors to [^3H]-dihydroalprenolol ([^3H]-DHA).
Specifically, radioactive ligand binding assay was performed as follows. β2ARs were purified with 0.1 wt % DDM (D. M. Rosenbaum et al., Science, 2007, 318, 1266-1273.) and was concentrated to about 10 mg/mL (approximately 200 μM). β2ARs purified with DDM were used to prepare a master binding mixture containing 10 nM [^3H]-dihydroalprenolol (DHA), which was dissolved in 0.2% amphipathic compounds (DDM or TPSs) and supplemented with 0.5 mg/mL BSA. The activity of the receptors purified with the amphipathic compounds was monitored at regular intervals over a 3- to 5-day incubation period. The receptors purified with DDM or TPSs were incubated with 10 nM [^3H]-DHA at room temperature for 30 minutes. The mixture was loaded onto a G-50 column, a solution passed through the column was collected in 1 mL of a binding buffer (100 mM NaCl and 20 mM HEPES (pH 7.5) supplemented with 0.5 mg/mL BSA and 20×CMC of each amphipathic compound), and 15 mL of a scintillation fluid was added to the solution. Receptor-bound [^3H]-DHA was measured using a scintillation counter (Beckman). The binding degree of the receptors to [^3H]-DHA was represented by a column graph.

[2] = critical micelle concentration (CMC) by hydrophobic fluorescent staining with diphenylhexatriene (DPH); assay type: physicochemical
Summary of the method: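 CMC determined by hydrophobic fluorescent staining with diphenylhexatriene (DPH); micelle hydrodynamic radius measured separately by dynamic light scattering at 1.0 wt %, with DDM as reference detergent.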

[3] = first two days of incubation at 0° C.

T1 sequence (P07550 whole entry): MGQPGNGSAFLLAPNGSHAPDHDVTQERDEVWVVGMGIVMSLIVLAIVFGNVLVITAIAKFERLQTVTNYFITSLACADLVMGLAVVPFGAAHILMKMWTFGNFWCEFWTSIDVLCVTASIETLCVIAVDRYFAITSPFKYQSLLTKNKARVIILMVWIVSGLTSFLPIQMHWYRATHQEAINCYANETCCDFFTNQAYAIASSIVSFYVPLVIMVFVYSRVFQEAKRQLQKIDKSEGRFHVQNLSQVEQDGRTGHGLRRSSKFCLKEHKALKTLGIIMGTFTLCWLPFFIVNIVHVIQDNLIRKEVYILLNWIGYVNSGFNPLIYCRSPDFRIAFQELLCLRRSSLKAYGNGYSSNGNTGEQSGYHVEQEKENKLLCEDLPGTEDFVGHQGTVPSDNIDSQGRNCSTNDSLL

CCCCCCCCCCCOCC(COCCCCCCCCCCC)O[C@@H]1OC(CO[C@@H]2OC(CO)[C@@H](O)C(O)C2O)[C@@H](O[C@@H]2OC(CO)[C@@H](O)C(O)C2O)C(O[C@@H]2OC(CO)[C@@H](O)C(O)C2O)C1O[C@@H]1OC(CO)[C@@H](O)C(O)C1O (some centres unmarked) [PSE-C11]
initial β2AR activity ([3H]-DHA binding) ([1]; 0.2 wt % DDM, PSA or PSE): higher initial activity than proteins solubilized in DDM
β2AR activity ([3H]-DHA binding) during incubation [1, 3]: well maintained the initial activity thereof
β2AR activity ([3H]-DHA binding) during incubation ([1]; incubation at room temperature (days 3-4)): the best
CMC [2]: ~0.004 mM
CMC (wt %) [2]: ~0.0005 wt %

CCCCCCCCCCCC(CCCCCCCCCCC)CO[C@@H]1OC(CO[C@@H]2OC(CO)[C@@H](O)C(O)C2O)[C@@H](O[C@@H]2OC(CO)[C@@H](O)C(O)C2O)C(O[C@@H]2OC(CO)[C@@H](O)C(O)C2O)C1O[C@@H]1OC(CO)[C@@H](O)C(O)C1O (some centres unmarked) [PSA-C11]
β2AR activity ([3H]-DHA binding) during incubation [1, 3]: well maintained the initial activity thereof
CMC [2]: ~0.007 mM
CMC (wt %) [2]: ~0.0008 wt %

CCCCCCCCCCCCCOCC(COCCCCCCCCCCCCC)O[C@@H]1OC(CO[C@@H]2OC(CO)[C@@H](O)C(O)C2O)[C@@H](O[C@@H]2OC(CO)[C@@H](O)C(O)C2O)C(O[C@@H]2OC(CO)[C@@H](O)C(O)C2O)C1O[C@@H]1OC(CO)[C@@H](O)C(O)C1O (some centres unmarked) [PSE-C13]
initial β2AR activity ([3H]-DHA binding) ([1]; 0.2 wt % DDM, PSA or PSE): higher initial activity than proteins solubilized in DDM
β2AR activity ([3H]-DHA binding) during incubation [1, 3]: well maintained the initial activity thereof
CMC [2]: ~0.001 mM
CMC (wt %) [2]: ~0.0001 wt %

CCCCCCCCOCC(COCCCCCCCC)(COCCCCCCCC)CO[C@@H]1OC(CO[C@@H]2OC(CO)[C@@H](O)C(O)C2O)[C@@H](O[C@@H]2OC(CO)[C@@H](O)C(O)C2O)C(O[C@@H]2OC(CO)[C@@H](O)C(O)C2O)C1O[C@@H]1OC(CO)[C@@H](O)C(O)C1O (some centres unmarked) [TPS-E8]
long-term β2AR activity ([3H]-DHA binding) [1]: significantly better than that of DDM
initial β2AR activity ([3H]-DHA binding) ([1]; TPSs at CMC+0.2wt %, without CHS): the most excellent
CMC [2]: ~0.007 mM
CMC (wt %) [2]: ~0.0009 wt %

CCCCCCCCCCCCO[C@@H]1O[C@H](CO)[C@@H](O[C@H]2O[C@H](CO)[C@@H](O)[C@H](O)[C@H]2O)[C@H](O)[C@H]1O [DDM, n-dodecyl-β-D-maltopyranoside, reference compound]
long-term β2AR activity ([3H]-DHA binding) [1]: the activity was rapidly lost over time
β2AR activity ([3H]-DHA binding) during incubation [1, 3]: well maintained the initial activity thereof
CMC [2]: ~0.17 mM
CMC (wt %) [2]: ~0.0087 wt %
